According to patent US8324223B2, “Substituted thieno [2,3-d] pyrimidines as HIV inhibitors” (priority 2006, dated 2012):

Key:
Assay in all cases: microbe, parasite or virus in culture
Type in all cases: cell-based, human immunodeficiency virus type 1 (HIV-1)
HIV-1 L100I-K103N = conditions: Human immunodeficiency virus 1, HeLa, read-out: EC50 L100I-K103N (nM)
wild type HIV-1 = conditions: Human immunodeficiency virus 1, Hela-JC53, read-out: EC50 WT (nM)
HIV-1 Y188L = conditions: Human immunodeficiency virus 1, HeLa, read-out: EC50 Y188L (nM)
HIV-1 Y181C = conditions: Human immunodeficiency virus 1, HeLa, read-out: EC50 Y181C (nM)

SMILES	EC50 (HIV-1 L100I-K103N) [nM]	EC50 (wild type HIV-1) [nM]	EC50 (HIV-1 Y188L) [nM]	EC50 (HIV-1 Y181C) [nM]
Cc1cc(C)c(Oc2nc(Nc3ccc(C#N)cc3)nc3ccsc23)c(C)c1 [Cpd 1]	10 to 100	< 10	< 10	< 10
Cc1cc(C)c(Nc2nc(Nc3ccc(C#N)cc3)nc3ccsc23)c(C)c1 [Cpd 2]	> 100	< 10	> 100	10 to 100
Cc1cc(C#N)cc(C)c1Oc1nc(Nc2ccc(C#N)cc2)nc2ccsc12 [Cpd 3]	< 10	< 10	< 10	10 to 100
Cc1cc(C)c(Oc2nc(Nc3ccc(C#N)cc3)nc3sccc23)c(C)c1 [Cpd 4]	10 to 100	< 10	10 to 100	10 to 100
Cc1cc(C)c(Oc2nc(Nc3ccc(C#N)cc3)nc3sc4c(c23)CCCC4)c(C)c1 [Cpd 5]	> 100	10 to 100	> 100	> 100
Cc1cc(C)c(Oc2nc(Nc3ccc(C#N)cc3)nc3c(C)csc23)c(C)c1 [Cpd 6]	10 to 100	10 to 100	10 to 100	10 to 100
Cc1cc(C#N)cc(C)c1Oc1nc(Nc2ccc(C#N)cc2)nc2sccc12 [Cpd 7]	10 to 100	< 10	< 10	< 10
Cc1cc(C)c(Nc2nc(Nc3ccc(C#N)cc3)nc3c(C)csc23)c(C)c1 [Cpd 8]	–	< 10	10 to 100	10 to 100
Cc1cc(C#N)cc(C)c1Oc1nc(Nc2ccc(C#N)cc2)nc2c(C)csc12 [Cpd 9]	< 10	< 10	< 10	< 10
